Like-named read-outs stand apart in the source and are kept apart here.
Experiments:
GIPR = settings: cited from earlier work
From the text: (§1) Development of similar Gs biased analogues for the GIPR has also been proposed. Although it is not possible to genetically instrument the dual agonistic effects, our results and those of others[33] highlight that decreased recruitment of β-arrestins might benefit the GLP-1R system[36],[37] but not for the GIPR regarding its role in glycaemic control. Ye ...

GLP-1R = target: T1, GLP-1R (Homo sapiens, UniProt P43220); settings: cited from earlier work
T1 construct: expressed in transfected cells; host or cells: parental HEK293A cells and β-arrestin 1/2 KO HEK293A cells
From the text: as §1

SNAP-GIPR T116R = settings: HEK293A
SNAP-GIPR Y73H = settings: HEK293A
SNAP-GIPR A150T = settings: HEK293A
GIPR variants (groups) [1] = tested on: GIPR variants (groups)
Protocol: This prompted us to further assess the role of β-arrestin for GIPR signalling by investigating the endosomal signalling in representative GIPR variants from each of the six in vitro-based groups.
At 48 h post-transfection, cells were washed with HBSS and subsequently maintained in 80 µl HBSS. […] Light emission at 515/20 nm (acceptor; rGFP) and 400/70 nm (donor; Rluc8) was measured using a Tecan Spark multimode microplate reader (Männedorf).

WT GIPR = settings: cited from earlier work
GIPR W90Lfs*17 [2] = assay: cAMP accumulation; format: cell-based, human; settings: W90Lfs*; HEK293; GIP(1–42) 1 pM–100 nM, 30 min 37 °C; mean of n = 5
Protocol: (§4) HEK293 (CRL-1573, American Type Culture Collection) and β-arrestin 1/2 knockout cells, generated from HEK293A[48], were used for cAMP measurement, homologues competition binding and β-arrestin 2 recruitment. For the internalization assay, endosomal signalling and basal receptor localization experiments, HEK293A (R70507, Thermo Fisher) cells were used. Both cell lines were cultured at 5% CO2 at 37 °C in Roswell Park Memorial Institute GlutaMAX-I supplemented with 10% fetal bovine serum, 180 units ml^−1 penicillin, and 45 g ml^−1 streptomycin. For the cAMP and binding experiments, cells were transfected with the calcium phosphate precipitation method[49]. The polyethyleneimine (PEI) transfection method was used for the β-arrestin 2 recruitment assays[50], endosomal signalling and basal receptor localization assays, while the lipofectamine transfection method was used for the internalization assay.
cAMP production was measured with the DiscoverX Hithunter cAMP assay according to the manufacturer’s protocol (DiscoverX). […] On the day of the assay, the cells were washed twice with HEPES-buffered saline (HBS) and incubated with HBS and 1 mM 3-isobutyl-1-methylxanthine for 30 min at 37 °C. […] After a 3-h incubation on a shaking table in the dark, the cAMP accumulation was measured based on luminescence with a Perkin Elmer EnVision 2104 Multilabel Microplate Reader. […]

GIPR variants (groups) [3] = assay: cAMP accumulation; format: cell-based, human
Protocol: as §4
cAMP production was measured with the DiscoverX Hithunter cAMP assay according to the manufacturer’s protocol (DiscoverX). […] On the day of the assay, the cells were washed twice with HEPES-buffered saline (HBS) and incubated with HBS and 1 mM 3-isobutyl-1-methylxanthine for 30 min at 37 °C. […] After the incubation, the assay medium was removed from the plate and the cells were washed with 30 µl PBS and treated with 40 µl enzyme donor–lysis buffer–chemiluminescent reagents and 10 µl cAMP antibodies for 60 min before 40 µl enzyme acceptor solution added. After a 3-h incubation on a shaking table in the dark, the cAMP accumulation was measured based on luminescence with a Perkin Elmer EnVision 2104 Multilabel Microplate Reader.
For cAMP accumulation, the data were fitted as a sigmoidal curve with a Hill slope of 1; for homologous competition binding, the data were fitted as a sigmoidal curve with a Hill slope of −1.

SNAP-WT GIPR = settings: HEK293A
GIPR variants (groups) [4] = assay: β-arrestin 2 recruitment (BRET);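 further: BRET readout of β-arrestin 2 recruitment in transiently transfected HEK293 cells expressing WT GIPR or a GIPR variant plus GPCR kinase 2, Rluc8 donor and citrine acceptor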
Protocol: Both cell lines were cultured at 5% CO2 at 37 °C in Roswell Park Memorial Institute GlutaMAX-I supplemented with 10% fetal bovine serum, 180 units ml^−1 penicillin, and 45 g ml^−1 streptomycin. […] The polyethyleneimine (PEI) transfection method was used for the β-arrestin 2 recruitment assays[50], endosomal signalling and basal receptor localization assays, while the lipofectamine transfection method was used for the internalization assay.
(§5) Measurement of β-arrestin 2 recruitment was performed with a BRET assay. Two days before the assay, the HEK293 cells were transiently transfected with either WT GIPR or the GIPR variants together with the donor Rluc8-Arrestin-3-Sp1, the acceptor mem-linker-citrine-SH3 and the GPCR kinase 2 to facilitate β-arrestin 2 recruitment. On assay day, the cells were washed with PBS and resuspended in PBS supplemented with 5 mmol l^−1 glucose. Subsequently, 85 µl of the cell suspension was transferred to a white 96-well plate and 10 µl of 50 µM coelenterazine-h was added.

GIPR variants (groups) [5] = tested on: GIPR variants (groups); remark: listed apart in the source
GIPR variants (groups) [6] = tested on: GIPR variants (groups); remark: listed apart in the source
Protocol: Binding experiments were performed simultaneously with the same transiently transfected HEK293 cells used for the cAMP experiments to enable the correlation of receptor expression with signalling between assays. In brief, 1 day before the assay, the transfected cells were seeded in a clear 96-well plate. […] On the assay day, the cells were washed twice with 4 °C binding buffer (50 mM HEPES buffer (pH 7.2), 1 mM CaCl2, 5 mM MgCl2 and 0.5% (wt/vol) bovine serum albumin) and incubated for 15 minutes at 4 °C. […] After incubation, the cells were washed in ice-cold binding buffer and lysed with 200 mmol l^−1 NaOH with 1% sodium dodecyl sulphate for 30 min. The gamma radiation was measured with a 2470 Wizard2 Automatic Gamma Counter.
To obtain Emax, EC50, Bmax, Kd and IC50 values, we analysed the data with the non-linear regression curve fitting program GraphPad Prism Software 9 (GraphPad).
The Bmax was calculated according to the following equation[51]: Bmax=B0×IC50/[L] in which B0 represents the total specific binding and [L] is the ligand concentration. The equilibrium dissociation constant (Kd) was obtained with the equation[51]: Kd=IC50−[L]

GIPR W90Lfs*17 [7] = settings: GIPR W90Lfs* (ECD), mean, n = 5, duplicate
Protocol: HEK293 (CRL-1573, American Type Culture Collection) and β-arrestin 1/2 knockout cells, generated from HEK293A[48], were used for cAMP measurement, homologues competition binding and β-arrestin 2 recruitment. […] Both cell lines were cultured at 5% CO2 at 37 °C in Roswell Park Memorial Institute GlutaMAX-I supplemented with 10% fetal bovine serum, 180 units ml^−1 penicillin, and 45 g ml^−1 streptomycin. […] The polyethyleneimine (PEI) transfection method was used for the β-arrestin 2 recruitment assays[50], endosomal signalling and basal receptor localization assays, while the lipofectamine transfection method was used for the internalization assay.
as §5

SNAP-GIPR M67R = settings: HEK293A
SNAP-GIPR A185V = settings: HEK293A
SNAP-GIPR A207V = settings: HEK293A
SNAP-GIPR P195R = settings: HEK293A
SNAP-GIPR V99I = settings: HEK293A
male Arrb2 KO mice = assay: IPGTT in male Arrb2 KO mice; format: in vivo, mouse; parameters: Mean difference in glucose (Arrb2-/- + Veh. vs. Arrb2-/- + GLP-1): unit not given here; settings: for Mean difference in glucose (Arrb2-/- + Veh. vs. Arrb2-/- + GLP-1): injected 15 min before glucose, n = 13 veh., 10
From the text: (§2) We therefore explored the functional relationship between β-arrestin recruitment and GIP-stimulated glucose regulation by conducting pharmacological interventions in a murine genetic global germline β-arrestin 2 (Arrb2) knockout (KO) model.
(§3) Studies were approved by and performed according to the guidelines of the Institutional Animal Care and Use Committee of Duke University. Male Arrb2 KO mice (Arrb2^−/−) ~12–15 weeks of age were generously provided by Drs Howard Rockman and Robert Lefkowitz at Duke University[70]. The mice were kept in standard housing conditions with a temperature of 20–26 °C and a 12-h dark/light cycle to ensure the physiological and psychological wellbeing of the mice. Mice were fed research diets 5053. We restrictedly used male mice because of the potential impact of the sexual dimorphism, that is, the oestrus cycle in female mice on cardiometabolic traits, resulting in unwanted variability and to ensure comparability to existing research predominantly using male mice[71]. The mice were subjected to an IPGTT. […] Data collection and analysis were not randomized or blind to the conditions of the experiments. The statistical analysis was performed in GraphPad Prism.

WT male mice = assay: IPGTT in WT male mice; format: in vivo, mouse; parameters: Mean difference in glucose (WT + Veh. vs. WT + GLP-1): unit not given here; settings: for Mean difference in glucose (WT + Veh. vs. WT + GLP-1): injected 15 min before glucose, n = 14 veh., 13
From the text: as §2, §3

[8] = tested on: β cell-specific β-arrestin 2 KO female mice; settings: cited from earlier work
From the text: In contrast, GIP-potentiated insulin secretion relied on β-a ...

GIPR S64P = target: T2, GIPR S64P (Homo sapiens, UniProt P48546, S64P); assay: cAMP accumulation; format: cell-based
T2 construct: host or cells: HEK293
T2 sequence (P48546 22-466 S64P): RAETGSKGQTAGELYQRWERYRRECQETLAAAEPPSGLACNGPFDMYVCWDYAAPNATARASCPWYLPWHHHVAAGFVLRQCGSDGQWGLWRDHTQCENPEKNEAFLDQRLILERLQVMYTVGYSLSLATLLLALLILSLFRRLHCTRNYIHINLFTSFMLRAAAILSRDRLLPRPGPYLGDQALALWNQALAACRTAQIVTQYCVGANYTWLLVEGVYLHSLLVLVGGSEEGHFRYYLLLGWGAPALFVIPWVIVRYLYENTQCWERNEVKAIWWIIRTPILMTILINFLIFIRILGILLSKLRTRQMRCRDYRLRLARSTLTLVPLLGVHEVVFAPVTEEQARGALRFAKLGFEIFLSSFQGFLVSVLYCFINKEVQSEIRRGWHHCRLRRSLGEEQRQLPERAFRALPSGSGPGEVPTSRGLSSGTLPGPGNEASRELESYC
Protocol: HEK293 (CRL-1573, American Type Culture Collection) and β-arrestin 1/2 knockout cells, generated from HEK293A[48], were used for cAMP measurement, homologues competition binding and β-arrestin 2 recruitment. […] Both cell lines were cultured at 5% CO2 at 37 °C in Roswell Park Memorial Institute GlutaMAX-I supplemented with 10% fetal bovine serum, 180 units ml^−1 penicillin, and 45 g ml^−1 streptomycin. For the cAMP and binding experiments, cells were transfected with the calcium phosphate precipitation method[49].
cAMP production was measured with the DiscoverX Hithunter cAMP assay according to the manufacturer’s protocol (DiscoverX). […] On the day of the assay, the cells were washed twice with HEPES-buffered saline (HBS) and incubated with HBS and 1 mM 3-isobutyl-1-methylxanthine for 30 min at 37 °C. […] After the incubation, the assay medium was removed from the plate and the cells were washed with 30 µl PBS and treated with 40 µl enzyme donor–lysis buffer–chemiluminescent reagents and 10 µl cAMP antibodies for 60 min before 40 µl enzyme acceptor solution added. After a 3-h incubation on a shaking table in the dark, the cAMP accumulation was measured based on luminescence with a Perkin Elmer EnVision 2104 Multilabel Microplate Reader. […]

[9] = M67R, Y73H, V99I, T116R, A150T, A185V, P195R and A207V
[10] = R12Q, L13F, R38L, A294V, I299V, E354Q, S415I, E418K, G449A and E463Q
[11] = T25R, R43G, R164Q, H166Y, I221M and K397N

T1 sequence (P43220 24-463, species assumed): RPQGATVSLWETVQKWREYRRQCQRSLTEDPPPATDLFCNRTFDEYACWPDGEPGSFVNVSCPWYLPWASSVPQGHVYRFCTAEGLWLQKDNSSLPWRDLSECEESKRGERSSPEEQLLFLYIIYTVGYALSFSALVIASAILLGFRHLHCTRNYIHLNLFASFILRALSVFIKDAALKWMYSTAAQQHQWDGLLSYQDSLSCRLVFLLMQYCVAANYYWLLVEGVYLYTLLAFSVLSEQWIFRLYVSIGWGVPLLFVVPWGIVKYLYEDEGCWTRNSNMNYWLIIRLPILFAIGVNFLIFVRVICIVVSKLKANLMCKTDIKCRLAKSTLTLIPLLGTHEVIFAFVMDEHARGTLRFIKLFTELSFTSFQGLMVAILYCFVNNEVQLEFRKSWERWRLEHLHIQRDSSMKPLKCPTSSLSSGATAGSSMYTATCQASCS

tirzepatide: GIPR–GLP-1R co-agonist
GIPR activation (GIPR): activation of GIPR as native GIP
cAMP pathway activation at the GLP-1R (GLP-1R): full activation of the cAMP pathway
β-arrestin recruitment to the GLP-1R (GLP-1R): less recruitment of β-arrestin

glucose-dependent insulinotropic polypeptide [GIP]
Emax (Dose-response), internalization (SNAP-GIPR T116R; GIP 1 nM–1 µM, 37 °C, n = 4): 93 % of maximal SNAP-WT GIPR inte
LogEC50 (Dose-response), internalization (SNAP-GIPR T116R; Hill slope 1.0, n = 4): -7.6
Emax (Dose-response), internalization (SNAP-GIPR Y73H; GIP 1 nM–1 µM, 37 °C, n = 4): 101 % of maximal SNAP-WT GIPR inte
LogEC50 (Dose-response), internalization (SNAP-GIPR Y73H; Hill slope 1.0, n = 4): -7.4
Emax (Dose-response), internalization (SNAP-GIPR A150T; GIP 1 nM–1 µM, 37 °C, n = 4): 98 % of maximal SNAP-WT GIPR inte
LogEC50 (Dose-response), internalization (SNAP-GIPR A150T; Hill slope 1.0, n = 4): -7.6
Endosomal signalling (GIPR variants (groups) [1]; variants that retained β-arrestin recruitment): effectively recruited mGs to early endosomes
Endosomal signalling (GIPR variants (groups) [1]; variants with diminished β-arrestin recruitment): minimal to no signalling from early endosomes
β-arrestin isoform recruitment (WT GIPR): predominantly recruits β-arrestin 2 over β-arrestin 1
cAMP (Emax) (GIPR W90Lfs*17 [2]): 11 % of WT GIPR activity
cAMP signalling activity at 100 pM GIP (GIPR variants (groups) [3]; 29 partial and complete LoF variants, 100 pM GIP): < 50 % of WT
cAMP production class (GIPR variants (groups) [3]; [9]): LoF (defined as <50% activity in either pathway)
cAMP production class (GIPR variants (groups) [3]; [10]): WT-like
cAMP production at higher GIP doses (GIPR variants (groups) [3]; R183Q, R190Q and R300W, higher GIP doses): cAMP production was restored
cAMP signalling (GIPR variants (groups) [3]; R190Q and E288G): impaired cAMP signalling
cAMP production class (GIPR variants (groups) [3]; [11]): maintained cAMP production
cAMP signalling at 100 pM GIP (GIPR variants (groups) [3]; T116R, R183Q, R190Q and R300W, 100 pM GIP): no cAMP signalling
Emax (Dose-response), internalization (SNAP-WT GIPR; GIP 1 nM–1 µM, 37 °C, n = 4): 100 % of maximal SNAP-WT GIPR inte
LogEC50 (Dose-response), internalization (SNAP-WT GIPR; Hill slope 1.0, n = 4): -7.5
β-arrestin recruitment (GIPR variants (groups) [4]; 21 of the 29 variants with impaired cAMP production (LoFcAMP/LoFarr)): impaired β-arrestin recruitment
β-arrestin recruitment class (GIPR variants (groups) [4]; [9]): WT-like
β-arrestin recruitment class (GIPR variants (groups) [4]; [10]): WT-like
β-arrestin recruitment (GIPR variants (groups) [4]; R190Q and E288G): impaired cAMP signalling and β-arrestin recruitment
β-arrestin recruitment class (GIPR variants (groups) [4]; [11]): low β-arrestin recruitment
β-arrestin 2 recruitment potency (GIPR variants (groups) [4]; most of 47 variants, apart from a few lacking recruitment): no major differences in potency
Level of internalization (GIPR variants (groups) [5]; M67R, V99I and P195R): slightly diminished internalization
Internalization (GIPR variants (groups) [5]; R190Q and E288G (LoFcAMP/LoFarr)): did not internalize
Level of internalization (GIPR variants (groups) [5]; Y73H, T116R, A150T, A185V and A207V): nearly identical levels of internalization as the WT GIPR
Internalization (GIPR variants (groups) [5]; all eight LoFcAMP/WT-likearr variants): preserved internalization capabilities
GIP binding (GIPR variants (groups) [6]; R190Q and E288G): maintained GIP binding
GIP binding (GIPR variants (groups) [6]; S64P, C84Pfs*70, R101H, Y258Sfs*50 and Q400Gfs*56): undetectable GIP binding
Binding capacity of GIP (Bmax) (GIPR variants (groups) [6]; all 29 LoF variants): impaired
logEC50 (Arrestin) (GIPR W90Lfs*17 [7]; Hill slope 1.0): -10.8
Arrestin (Emax) (GIPR W90Lfs*17 [7]; normalized to WT GIPR): 15
Emax (Dose-response), internalization (SNAP-GIPR M67R; GIP 1 nM–1 µM, 37 °C, n = 4): 98 % of maximal SNAP-WT GIPR inte
LogEC50 (Dose-response), internalization (SNAP-GIPR M67R; Hill slope 1.0, n = 4): -6.6
Emax (Dose-response), internalization (SNAP-GIPR A185V; GIP 1 nM–1 µM, 37 °C, n = 4): 89 % of maximal SNAP-WT GIPR inte
LogEC50 (Dose-response), internalization (SNAP-GIPR A185V; Hill slope 1.0, n = 4): -7.5
Emax (Dose-response), internalization (SNAP-GIPR A207V; GIP 1 nM–1 µM, 37 °C, n = 4): 98 % of maximal SNAP-WT GIPR inte
LogEC50 (Dose-response), internalization (SNAP-GIPR A207V; Hill slope 1.0, n = 4): -7.6
Emax (Dose-response), internalization (SNAP-GIPR P195R; GIP 1 nM–1 µM, 37 °C, n = 4): 77 % of maximal SNAP-WT GIPR inte
LogEC50 (Dose-response), internalization (SNAP-GIPR P195R; Hill slope 1.0, n = 4): -7.2
Emax (Dose-response), internalization (SNAP-GIPR V99I; GIP 1 nM–1 µM, 37 °C, n = 4): 92 % of maximal SNAP-WT GIPR inte
LogEC50 (Dose-response), internalization (SNAP-GIPR V99I; Hill slope 1.0, n = 4): -6.9

glucagon-like peptide-1 [GLP-1]
Blood glucose lowering in IPGTT (male Arrb2 KO mice; male Arrb2 KO mice, 15 min before IPGTT): able to lower blood glucose
Mean difference in glucose (Arrb2-/- + Veh. vs. Arrb2-/- + GLP-1) (male Arrb2 KO mice; time 0, P = 0.011): 20.9
Mean difference in glucose (Arrb2-/- + Veh. vs. Arrb2-/- + GLP-1) (male Arrb2 KO mice; time 15 minutes, P = 0.008): 44.9
Mean difference in glucose (Arrb2-/- + Veh. vs. Arrb2-/- + GLP-1) (male Arrb2 KO mice; time 30 minutes, P = 0.0038): 39.3
Mean difference in glucose (Arrb2-/- + Veh. vs. Arrb2-/- + GLP-1) (male Arrb2 KO mice; time 60 minutes, P = 0.216): 8.48
Mean difference in glucose (Arrb2-/- + Veh. vs. Arrb2-/- + GLP-1) (male Arrb2 KO mice; time 120 minutes, P = 0.796): 3.39
Insulinotropic properties (male Arrb2 KO mice; β-arrestin KO mice): maintained its insulinotropic properties
Blood glucose lowering in IPGTT (WT male mice; WT male mice, 15 min before IPGTT): significantly lowered blood glucose levels
Mean difference in glucose (WT + Veh. vs. WT + GLP-1) (WT male mice; time 0, P = 0.031): 19.9
Mean difference in glucose (WT + Veh. vs. WT + GLP-1) (WT male mice; time 15 minutes, P = 0.025): 40.3
Mean difference in glucose (WT + Veh. vs. WT + GLP-1) (WT male mice; time 30 minutes, P = 0.094): 28.3
Mean difference in glucose (WT + Veh. vs. WT + GLP-1) (WT male mice; time 60 minutes, P = 0.535): 8.13
Mean difference in glucose (WT + Veh. vs. WT + GLP-1) (WT male mice; time 120 minutes, P = 0.741): -1.82
Acute glycaemic control [8]: reduced acute GLP-1-mediated glycaemic control

B1: S64P (protein)
chain: T2 sequence (P48546 22-466 S64P)
In vitro groups (cAMP) (GIPR variants (groups) [3]; cAMP part of the in vitro group): LoF_camp
percentage_camp (GIPR variants (groups) [3]; cAMP production compared with WT): <50% cAMP
Beta, cAMP (GIPR variants (groups) [3]; in vitro cAMP production per GIPR variant): 0
In vitro groups (β-arrestin) (GIPR variants (groups) [4]; arr part of the in vitro group): LoF_arr
Beta, Barr (GIPR variants (groups) [4]; in vitro β-arrestin recruitment per GIPR variant): 0
Efficacy at 100pmol (cAMP) (GIPR S64P): 0
